Here are results for 14 molecules from PubChem BioAssay (NCI).

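These data come from cells grown in 96-well plates and exposed to compound for 48 hours at five concentrations. GI50 marks 50% less growth. The concentration for full growth arrest is given as TGI.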 Some results are limits rather than exact numbers.

Some test systems named below: DMS 114 small cell lung; A549 NSCLC; U251 CNS; A498 renal; MOLT-4 leukemia; SK-MEL-28 melanoma; HOP-92 NSCLC; KM20L2 colon; MCF7 breast; NCI/ADR-RES ovarian.
Common to all, as to test: NCI tumour cell line growth inhibition, 48 h

In the case of `CC(=O)[O-].O=[N+]([O-])c1ccc([O-])c(C=NCCN=Cc2cc([N+](=O)[O-])ccc2[O-])c1.[Mn+3]`, the GI50 is 98 µM with DMS 114 small cell lung; more than 100 µM in the test on A549 NSCLC; more than 100 µM in the test on U251 CNS; more than 100 µM with A498 renal; more than 100 µM in the test with MOLT-4 leukemia; more than 100 µM with SK-MEL-28 melanoma. Further, the TGI with DMS 114 small cell lung, with A549 NSCLC, in the test on U251 CNS, in the test with A498 renal, in the test with MOLT-4 leukemia and in the test with SK-MEL-28 melanoma was more than 100 µM in each case.

Consider `C=C(C[N+](C)(C)C)N/N=C/c1oc(-c2ccc(OC)c(OC)c2)c(-c2ccc(OC)c(OC)c2)c1[N+](=O)[O-]`, for which the TGI is 96.2 µM with HOP-92 NSCLC; more than 100 µM in the test with A549 NSCLC; 40.2 µM with U251 CNS; more than 100 µM in the test on KM20L2 colon; 82.3 µM in the test on A498 renal; 83.6 µM with MOLT-4 leukemia. For the same molecule, the TGI in the test with SK-MEL-28 melanoma was determined as 33.8 µM.

Regarding `C1=CC=C2NCCSCCNC3=CC=CC=CC3=NCCSCCN=C2C=C1`, the TGI in the test on DMS 114 small cell lung, in the test on A549 NSCLC, in the test on U251 CNS, with KM20L2 colon, in the test on A498 renal and in the test with MOLT-4 leukemia was more than 100 µM throughout. Besides, the TGI in the test on SK-MEL-28 melanoma was more than 100 µM.

As for `CC1(C)Oc2ccccc2N2O[C@@H]3C(=O)N(c4ccccc4)C(=O)[C@@H]3C21c1ccccc1` (stereo partly drawn), the TGI in the test on DMS 114 small cell lung was 62.9 µM; in the test on A549 NSCLC, 48.4 µM; with U251 CNS it was 69.1 µM; in the test with KM20L2 colon it was more than 100 µM; with A498 renal it was 47.3 µM; in the test with MOLT-4 leukemia it was more than 100 µM. In the test with SK-MEL-28 melanoma, this molecule showed a TGI of 85 µM.

Take `CCCCOP1(=O)C=CC(Cl)=C(C)C1` (stereo not drawn): the TGI in the test on DMS 114 small cell lung is 71.7 µM; in the test with HOP-92 NSCLC, 54.5 µM; in the test with A549 NSCLC, more than 100 µM; in the test with KM20L2 colon, 49.5 µM; with MOLT-4 leukemia it was 25.3 µM; with SK-MEL-28 melanoma, 31.7 µM.

On to `CCOC(=O)c1cc(C(=O)O)c(=O)n2c1[nH]c1ccccc12`, for which the TGI with DMS 114 small cell lung, with A549 NSCLC, in the test with U251 CNS, in the test with KM20L2 colon, in the test on A498 renal and with MOLT-4 leukemia was more than 100 µM each time. In the test on SK-MEL-28 melanoma, this molecule came in with a TGI of more than 100 µM.

As for `O=C1[C@H]2ON(c3ccccc3)C(c3cccc([N+](=O)[O-])c3)[C@H]2C(=O)N1c1ccc(Cc2ccc(N3C(=O)[C@@H]4ON(c5ccccc5)C(c5cccc([N+](=O)[O-])c5)[C@@H]4C3=O)cc2)cc1` (stereo partly drawn), the TGI was more than 100 µM in the test on DMS 114 small cell lung; more than 100 µM with A549 NSCLC; more than 100 µM in the test on U251 CNS; more than 100 µM with KM20L2 colon; 97.5 µM with A498 renal; more than 100 µM with MOLT-4 leukemia. In the test on SK-MEL-28 melanoma, this molecule returned a TGI of more than 100 µM.

`CC(C)(C)c1cc(C(=O)O)c(C(c2ccccc2)c2ccccc2C(=O)O)c(C(=O)O)c1` (stereo not drawn): the TGI is more than 100 µM with DMS 114 small cell lung; more than 100 µM in the test on A549 NSCLC; 25.4 µM in the test on U251 CNS; more than 100 µM with KM20L2 colon; more than 100 µM with MOLT-4 leukemia; more than 100 µM in the test with SK-MEL-28 melanoma.

With `CC12O[Te]34OC1(C)C(C)(O3)C2(C)O4`, the TGI in the test on DMS 114 small cell lung was 25.7 µM; with A549 NSCLC, 25.1 µM; in the test on U251 CNS, 15.2 µM; with KM20L2 colon, 87.5 µM; in the test on A498 renal it was more than 8.75 µM; with MOLT-4 leukemia it was 34.6 µM. This molecule also gave a TGI with SK-MEL-28 melanoma of 23.3 µM.

For `O=C(O)C(O)c1ccc(F)cc1` (stereo not drawn), the TGI in the test with MCF7 breast, in the test with HOP-92 NSCLC, with A549 NSCLC, with NCI/ADR-RES ovarian, in the test on U251 CNS and in the test with A498 renal was more than 100 µM throughout. Besides, the TGI in the test with MOLT-4 leukemia and in the test on SK-MEL-28 melanoma was more than 100 µM in each case.

For `COc1ccc2c(c1)c(-c1cc(-c3cn(C)c4ccc(OC)cc34)[nH]n1)cn2C`, the GI50 in the test with MCF7 breast is more than 100 µM; in the test with HOP-92 NSCLC, 60.7 µM; in the test with A549 NSCLC, more than 100 µM; with NCI/ADR-RES ovarian, more than 100 µM; with U251 CNS, more than 100 µM; in the test with A498 renal it was more than 100 µM. Besides, the GI50 in the test on MOLT-4 leukemia and in the test on SK-MEL-28 melanoma was more than 100 µM in each case. The TGI with MCF7 breast, in the test on HOP-92 NSCLC, with A549 NSCLC, in the test with NCI/ADR-RES ovarian, with U251 CNS and in the test on A498 renal was more than 100 µM in each case. Moreover, the TGI with MOLT-4 leukemia and in the test with SK-MEL-28 melanoma was more than 100 µM each time.

Regarding `Cc1nc2cc(Nc3nc(Nc4ccc(F)cc4)nc(-c4ccc(Cl)cc4)n3)ccc2n1Cc1ccccc1`, the GI50 in the test with MCF7 breast was 3.1 µM; with HOP-92 NSCLC it was 1.74 µM; in the test on A549 NSCLC it was 6.18 µM; with NCI/ADR-RES ovarian, 5.51 µM; in the test on U251 CNS, 12.5 µM; in the test on A498 renal, 4.54 µM. Moreover, the GI50 with MOLT-4 leukemia is 3.09 µM; in the test with SK-MEL-28 melanoma it was 8.63 µM. For the same molecule, the TGI with MCF7 breast was more than 100 µM; with HOP-92 NSCLC it was 23.7 µM; in the test with A549 NSCLC, 36.9 µM; with NCI/ADR-RES ovarian it was 33.8 µM; in the test with U251 CNS, more than 100 µM; with A498 renal it was more than 100 µM. Further, the TGI in the test on MOLT-4 leukemia and in the test with SK-MEL-28 melanoma was more than 100 µM throughout.

As for `COc1cccc(C2CC(=O)Nc3cc4c(cc32)CCC4)c1OC` (stereo not drawn), the GI50 with MCF7 breast is 3.22 µM; with HOP-92 NSCLC, 0.758 µM; in the test on A549 NSCLC, 0.859 µM; in the test with NCI/ADR-RES ovarian it was 2.43 µM; in the test with U251 CNS, 4.71 µM; with A498 renal it was 2.39 µM. The GI50 in the test with MOLT-4 leukemia was 3.16 µM; with SK-MEL-28 melanoma, 5.33 µM. The TGI with MCF7 breast was 18.4 µM; in the test with HOP-92 NSCLC it was 7.83 µM; with A549 NSCLC, more than 33.8 µM; with NCI/ADR-RES ovarian it was 7.14 µM; in the test on U251 CNS, 19.3 µM; in the test with A498 renal, 13.2 µM. Besides, the TGI is 10.2 µM in the test on MOLT-4 leukemia and 28.3 µM in the test with SK-MEL-28 melanoma.

Regarding `Cc1cc(S(N)(=O)=O)c(S/C(=N\NS(=O)(=O)c2ccccc2)c2ccc(Cl)c(Cl)c2)cc1Cl`, the GI50 in the test on MCF7 breast is 30.5 µM; in the test on HOP-92 NSCLC, 93.4 µM; with A549 NSCLC, 32.2 µM; in the test with NCI/ADR-RES ovarian it was 28.5 µM; with U251 CNS, 28.8 µM; in the test with A498 renal, 35 µM. Besides, the GI50 is 30.3 µM in the test with MOLT-4 leukemia and 84.1 µM in the test on SK-MEL-28 melanoma. Besides, the TGI in the test with MCF7 breast was more than 100 µM; with HOP-92 NSCLC, more than 100 µM; in the test on A549 NSCLC it was 96.9 µM; in the test on NCI/ADR-RES ovarian it was 77.6 µM; in the test with U251 CNS it was more than 100 µM; with A498 renal, 87.1 µM. The TGI with MOLT-4 leukemia and in the test on SK-MEL-28 melanoma was more than 100 µM throughout.
